Measurements published in the NIST ThermoML archive (doi:10.1016/j.jct.2008.03.011).
Numbers after ± are expanded uncertainties.

Columns and labels:
[1] = refractive index (Na D-line) (dimensionless); xn = mol fraction of the nth substance listed; conditions: 101 kPa, Liquid
[2] = xn = mol fraction of the nth substance listed; conditions: 101 kPa, Liquid

CCCCCCCC[n+]1ccn(C)c1.F[P-](F)(F)(F)(F)F [1-octyl-3-methylimidazolium hexafluorophosphate] + CCC(C)=O
Conditions | mass density, 293.15 K [kg/m3] | mass density, 298.15 K [kg/m3] | mass density, 303.15 K [kg/m3] | refractive index, 293.15 K | refractive index, 298.15 K | refractive index, 303.15 K | speed of sound, 293.15 K [m/s] | speed of sound, 298.15 K [m/s] | speed of sound, 303.15 K [m/s]
[1], x1 = 0.0475 | – | – | – | 1.38881 ± 0.0012 | 1.38663 ± 0.0012 | 1.38505 ± 0.0012 | – | – | –
[1], x1 = 0.0972 | – | – | – | 1.39567 ± 0.0012 | 1.39445 ± 0.0012 | 1.39284 ± 0.0012 | – | – | –
[1], x1 = 0.1918 | – | – | – | 1.40468 ± 0.0013 | 1.40289 ± 0.0013 | 1.40124 ± 0.0013 | – | – | –
[1], x1 = 0.2947 | – | – | – | 1.41058 ± 0.0013 | 1.40877 ± 0.0013 | 1.40709 ± 0.0013 | – | – | –
[1], x1 = 0.3949 | – | – | – | 1.41468 ± 0.0013 | 1.41302 ± 0.0013 | 1.41133 ± 0.0013 | – | – | –
[1], x1 = 0.4983 | – | – | – | 1.41774 ± 0.0013 | 1.41614 ± 0.0013 | 1.41466 ± 0.0013 | – | – | –
[1], x1 = 0.5752 | – | – | – | 1.41934 ± 0.0013 | 1.41779 ± 0.0013 | 1.41645 ± 0.0013 | – | – | –
[1], x1 = 0.6815 | – | – | – | 1.42126 ± 0.0013 | 1.41979 ± 0.0013 | 1.41825 ± 0.0013 | – | – | –
[1], x1 = 0.7683 | – | – | – | 1.42239 ± 0.0013 | 1.42095 ± 0.0013 | 1.41949 ± 0.0013 | – | – | –
[1], x1 = 0.8315 | – | – | – | 1.42355 ± 0.0013 | 1.42198 ± 0.0013 | 1.42051 ± 0.0013 | – | – | –
[1], x1 = 0.9315 | – | – | – | 1.42474 ± 0.0013 | 1.42337 ± 0.0013 | 1.42199 ± 0.0013 | – | – | –
[1], x1 = 1 | – | – | – | 1.4244 ± 0.0013 | 1.42302 ± 0.0013 | 1.42165 ± 0.0013 | – | – | –
[2], x1 = 0.0475 | 869.8 ± 0.6 | 864.3 ± 0.6 | 859.6 ± 0.7 | – | – | – | 1243 ± 8 | 1224 ± 8 | 1195 ± 7
[2], x1 = 0.0972 | 923.7 ± 0.6 | 918.9 ± 0.6 | 914.1 ± 0.6 | – | – | – | 1268 ± 8 | 1249 ± 8 | 1229 ± 8
[2], x1 = 0.1918 | 1002 ± 0.5 | 997.6 ± 0.5 | 993.2 ± 0.5 | – | – | – | 1303 ± 8 | 1286 ± 8 | 1269 ± 8
[2], x1 = 0.2947 | 1063.1 ± 0.6 | 1058.8 ± 0.6 | 1054.6 ± 0.6 | – | – | – | 1331 ± 8 | 1315 ± 8 | 1300 ± 8
[2], x1 = 0.3949 | 1107.9 ± 0.7 | 1103.7 ± 0.7 | 1099.5 ± 0.7 | – | – | – | 1352 ± 8 | 1337 ± 8 | 1323 ± 8
[2], x1 = 0.4983 | 1143.6 ± 0.7 | 1139.4 ± 0.7 | 1135.3 ± 0.7 | – | – | – | 1368 ± 8 | 1354 ± 8 | 1340 ± 8
[2], x1 = 0.5752 | 1164.9 ± 0.8 | 1160.9 ± 0.8 | 1156.9 ± 0.8 | – | – | – | 1378 ± 8 | 1364 ± 8 | 1351 ± 8
[2], x1 = 0.6815 | 1189.5 ± 0.9 | 1185.5 ± 0.9 | 1181.5 ± 0.8 | – | – | – | 1389 ± 8 | 1376 ± 8 | 1363 ± 8
[2], x1 = 0.7683 | 1205.8 ± 0.9 | 1202 ± 0.9 | 1198.3 ± 0.9 | – | – | – | 1399 ± 8 | 1386 ± 8 | 1372 ± 8
[2], x1 = 0.8315 | 1216.4 ± 0.9 | 1212.8 ± 0.9 | 1209.1 ± 0.9 | – | – | – | 1406 ± 8 | 1392 ± 8 | 1379 ± 8
[2], x1 = 0.9315 | 1230.9 ± 1 | 1227.5 ± 1 | 1223.9 ± 1 | – | – | – | 1425 ± 9 | 1410 ± 8 | 1395 ± 8
[2], x1 = 1 | 1239.6 ± 1.1 | 1235.7 ± 1 | 1231.9 ± 1 | – | – | – | 1424 ± 9 | 1408 ± 8 | 1393 ± 8

CCC(C)=O [butanone] + CCCCCCCC[n+]1ccn(C)c1.F[P-](F)(F)(F)(F)F
x2 = 0
Conditions | mass density, 293.15 K [kg/m3] | mass density, 298.15 K [kg/m3] | mass density, 303.15 K [kg/m3] | refractive index, 293.15 K | refractive index, 298.15 K | refractive index, 303.15 K | speed of sound, 293.15 K [m/s] | speed of sound, 298.15 K [m/s] | speed of sound, 303.15 K [m/s]
[1] | – | – | – | 1.37879 ± 0.0012 | 1.37618 ± 0.0012 | 1.37355 ± 0.0012 | – | – | –
[2] | 805.6 ± 0.7 | 799.7 ± 0.7 | 794.9 ± 0.8 | – | – | – | 1212 ± 8 | 1192 ± 7 | 1163 ± 7

C1CCCCC1 [cyclohexane] + CCC(C)=O
x1 = 1
Conditions | refractive index, 293.15 K | refractive index, 298.15 K | refractive index, 303.15 K | speed of sound, 293.15 K [m/s] | speed of sound, 298.15 K [m/s] | speed of sound, 303.15 K [m/s]
[1], Standard Abbe refractometry | 1.42633 ± 0.00031 | 1.42354 ± 0.00031 | 1.42073 ± 0.00031 | – | – | –
[2], Sing-around technique in a fixed-path interferometer | – | – | – | 1279 ± 2 | 1256 ± 2 | 1219 ± 2

[2], x1 = 1
Conditions | mass density [kg/m3]
293.15 K | 778.4 ± 0.5
298.15 K | 773.8 ± 0.5
303.15 K | 769 ± 0.5
